Patent US11793782B2, “Therapeutic agents for neurodegenerative diseases” (priority 2017, dated 2023)

What was measured:
[1] = test system: Npc1−/− mice; experiment: Coat condition of Npc1−/− mice; assay type: in vivo, mouse; conditions: 0.1 g/kg in chow from weaning, nine weeks of age
Source text: Separate groups of Npc1^-/- and Npc1^+/+ mice were left untreated, as controls.

[2] = test system: Npc1−/− and Npc1+/+ mice; experiment: Gait analysis (CatWalk), NPC mouse study; assay type: in vivo; conditions: 0.1 g/kg from weaning, eight weeks of age
Procedure: Separate groups of Npc1^−/− and Npc1^+/+ mice were left untreated, as controls. Gait analysis was performed on mice at eight weeks of age using a CatWalk®15.0 system according to manufacturer's instructions (Noldus, Nottingham, UK). Five runs were recorded per animal. CatWalk® parameters measured were: • 1. Stand Mean: average duration (s) of paws in contact with glass plate; • 2. Step Cycle: duration (s) between two consecutive contacts of the same paw; • 3. Duty Cycle: percentage of time paws in contact with plate compared with time to complete a step cycle; • 4. Step Sequence (AB): percentage of time spent walking in LF-RH-RF-LH alternating pattern (LF: left front; RH: right hind; RF: right front; LH left hind); • 5. Cadence: step per seconds in a trial; • 6. Diagonal Support: percentage of time with simultaneous contact of diagonal paws with the glass plate (RF&LH or RH&LF). Motor Function Analysis

[3] = test system: Mucopolysaccharidosis Type IIIB (MPS IIIB) patient fibroblasts; experiment: Lysosomal volume via LysoTracker, MPS IIIB fibroblasts; assay type: cell-based, human; conditions: 1 mM, 6 days
[4] = test system: AB variant of Tay-Sachs disease patient fibroblasts; experiment: Glycosphingolipid (GSL) levels by HPLC, AB variant fibroblasts; assay type: cell-based, human; conditions: 1 mM for 6 days
[5] = test system: Tay-Sachs disease patients; experiment: Case studies, Tay-Sachs disease patients (SARA, SCAFI, MoCA); assay type: in vivo, human
Source text: For example, to evaluate overall neurological status, mDRS, a four-domain scale (ambulation, manipulation, language and swallowing), may be applied. Cerebellar function may be evaluated using SARA, an eight-item clinical rating scale (gait, stance, sitting, speech, fine motor function and taxis; range 0-40, where 0 is the best neurological status and 40 the worst), and SCAFI, comprising the 8-m-Walking-Time (8 MW; performed by having patients walking twice as quickly as possible from one line to another excluding turning), 9-Hole-Peg-Test (9HPT) and the number of “PATA” repetitions over 10 s. Subjective impairment and quality of life may be evaluated using the EQ-5D-5L questionnaire and VAS. To assess ocular motor function, 3-dimensional videooculography (EyeSeeCam) may be used to measure the peak velocity of saccades, gain of smooth pursuit, peak slow phase velocity of gaze-evoked nystagmus (gaze-holding function), peak slow phase velocity of optokinetic nystagmus, and gain of horizontal vestibulo-ocular reflex. To evaluate the cognitive state, WAIS-R or WISC-IV, and MoCA, assessing different cognitive domains, including attention and concentration, executive functions, memory, language, visuoconstructional skills, conceptual thinking, calculations, and orientation with a maximum of 30 points and a cut-off score of 26, may be used. The skilled person will know how to perform these and other such tests.
Before treatment was commenced, examination of the patient indicated a Scale for Assessment and Rating of Ataxia (SARA) score of 15.5/40. In addition, results from the patient's Spinocerebellar Ataxia Functional Index (SCAFI) analysis were: • Mean 8-meters Walking Test (8 MW): 21.6 s • MW 9-Hole Pegboard Test Dominant (9HPTD) (right): 48.3 s • MW 9-Hole Pegboard Test Non-Dominant (9HPTND): 44.9 s • MW PATA Word Test: 20 • Montreal Cognitive Assessment (MoCA): 18/30
The day following this examination, the patient was started on therapy with acetyl-leucine, at a dose of 3 g per day for the first week, followed by a dose of 5 g per day for the second week onwards.
The day of the examination, the patient was started on therapy with acetyl-leucine at a dose of 3 g per day for the first week, followed by a dose of 5 g per day for the second week onwards.
The patient was started on therapy with acetyl-leucine at a dose of 1.5 g per day for the first week, followed by a dose of 3 g per day for the second week onwards.

[6] = test system: SCA 1 patient; experiment: Case study, Spinocerebellar Ataxia (SCA) 1; assay type: in vivo, human
Source text: The patient in this case study was a person who was genetically diagnosed with Spinocerebellar Ataxia (SCA) 1. Before treatment, the patient had severe problems with speaking and swallowing, tremor of both arms, spasticity and moderate ataxia of stance and gait. The patient also had problems sleeping.

[7] = test system: amyloid precursor protein C-terminal fragments (APP-CTFs); experiment: APP-CTF levels in cerebellum of NPC1−/− mice; assay type: in vivo, mouse; conditions: 0.1 g/kg body weight daily from 3 weeks of age, sacrificed at 8 weeks
Procedure: The Niemann-Pick Disease Type C (NPC) mouse model shares a number of pathological features with Alzheimer's disease (AD) as described herein. […] Mice were sacrificed at 8 weeks of age. Levels of amyloid precursor protein C-terminal fragments (APP-CTFs) were evaluated relative to total amyloid precursor protein (APP) levels in the cerebellum for wild type, untreated wild type NPC1^−/− mice, and AL-treated wild type NPC1^−/− mice. Levels of microtubule-associated protein 1A/1B-light chain 3-phosphatidylethanolamine conjugate (LC3-II) were also evaluated relative to levels of tubulin loading control for wild type, untreated wild type NPC1^−/− mice, and AL-treated wild type NPC1^−/− mice.

[8] = test system: downbeat nystagmus patients; experiment: Case studies, downbeat nystagmus patients; assay type: in vivo, human; conditions: downbeat nystagmus Patient 2
[9] = test system: patients with cerebellar ataxia; conditions: cited from earlier work

CC(=O)NC(CC(C)C)C(=O)O (racemic) [acetyl-DL-leucine]
Coat condition [1]: smooth and glossy coat | Gait vs untreated littermates [2]: significantly improved gait | LysoTracker fluorescence relative to untreated disease fibroblasts [3]: statistically significant reduction in LysoTracker fluorescence | GSL levels [4]: trend towards decreased GSL levels | Overall symptoms ([5]; Tay-Sachs Patient 1): improvement in symptoms | SARA ([5]; Tay-Sachs Patient 1, 5 g per day, after 4 months, baseline 15.5/40): 17/40 | MoCA ([5]; Tay-Sachs Patient 1, after 4 months, baseline 18/30): 22/30 | PATA ([5]; Tay-Sachs Patient 1, after 4 months, baseline 20): 21 | 8MWT ([5]; Tay-Sachs Patient 1, after 4 months, baseline 21.6 sec): 25.49 s | 9HPTND ([5]; Tay-Sachs Patient 1, after 4 months, baseline 44.9 sec): 47.09 s | 9HPTD ([5]; Tay-Sachs Patient 1, after 4 months, baseline 48.3 sec): 48.67 s | Clinical observation ([5]; Tay-Sachs Patient 1, after four months): stable condition with slightly improved cognitive function but had deterioration of stance, gait and fine motor function | Clinical observation ([5]; Tay-Sachs Patient 1, after one month): improved fine motor skills and reduced hand tremor | MoCA ([5]; Tay-Sachs Patient 1, after one month, baseline 18/30): 21/30 | PATA ([5]; Tay-Sachs Patient 1, after one month, baseline 20): 22 | 8MWT ([5]; Tay-Sachs Patient 1, after one month, baseline 21.6 sec): 7 s | 9HPTND ([5]; Tay-Sachs Patient 1, after one month, baseline 44.9 sec): 40.1 s | 9HPTD ([5]; Tay-Sachs Patient 1, after one month, baseline 48.3 sec): 45.9 s | SARA ([5]; Tay-Sachs Patient 2, 5 g per day, after one month, baseline 10.5/40): 5/40 | Clinical observation ([5]; Tay-Sachs Patient 2, after one month): increased enunciation, improved postural stability, and enhanced cognitive function | 8MWT ([5]; Tay-Sachs Patient 2, after one month, baseline 12.5 sec): 9.55 s | PATA ([5]; Tay-Sachs Patient 2, after one month, baseline 18): 17 | MoCA ([5]; Tay-Sachs Patient 2, after one month, baseline 21/30): 25/30 | 9HPTD ([5]; Tay-Sachs Patient 2, after one month, baseline 21.5 sec): 34.97 s | 9HPTND ([5]; Tay-Sachs Patient 2, after one month, baseline 35.5 sec): 39.34 s | SARA ([5]; Tay-Sachs Patient 3, 3 g per day, after one month, baseline 36/40): 33/40 | Clinical observation ([5]; Tay-Sachs Patient 3, after one month): increased fine motor skills | mRDS ([5]; Tay-Sachs Patient 3, after one month, baseline 18/24): 16/24 | EQ-5D-5L visual scale ([5]; Tay-Sachs Patient 3, after one month, baseline 50): 60 | 8MWT ([5]; Tay-Sachs Patient 3, after one month, with support of one arm, baseline 18.1 (only with strong support)): 11.75 (with support | Symptoms ([6]; 5 g/day, three weeks on medication): all symptoms significantly improved | Side-effects ([6]; over two years on the same dosage): without any side-effects | Intensity of signs and symptoms after stopping ([6]; two weeks after medication was stopped): the same as before therapy | APP-CTF levels relative to total APP in the cerebellum [7]: lowering of APP-CTFs | Self-chosen velocity (gait analysis) ([8]; about one month after stopping treatment, decrease from 85): 72 cm/s | Maximal gait velocity ([8]; about one month after stopping treatment, decrease from 155): 113 cm/s | Self-chosen velocity (gait analysis) ([8]; on treatment, increase from 56): 85 cm/s | PET study in patients with ataxia ([9]; Becker-Bense et al. (2015)): increased metabolism in the midbrain and lower brainstem in responders | Cerebellar ataxia, another case series ([9]; Pelz et al. (2015)): did not find benefit | Quantitative gait analysis ([9]; Schniepp et al. (2015)): improved temporal gait variability | Cerebellar ataxia, case series ([9]; Strupp et al. (2013)): symptomatic improvement of cerebellar ataxia
